Assay results from publication PMC9458250, “6-Formyl Umbelliferone, a Furanocoumarin from Angelica decursiva L., Inhibits Key Diabetes-Related Enzymes and Advanced Glycation End-Product Formation” (Molecules, 2022).

Tests used:
[1] = tested on: insulin-resistant C2C12 skeletal muscle cells; assay: 2-NBDG glucose uptake assay; assay type: cell-based
Method: The C2C12 cells were cultured in 96-well plates (2 × 10^5 cells/well) with DMEM containing 10% FBS and 1% P/S at 37 °C and exposed to a 5% CO2 atmosphere. When the cells reached confluence, they were subjected to differentiation in DMEM supplemented with 2% horse serum for 5 days. Then the cells were starved in low-glucose serum-free DMEM for 24 h. Subsequently, the 2-NBDG assay was performed to evaluate glucose uptake. The cells were treated with various concentrations of 6-FU and insulin (100 nM) for 12 h, followed by 20 μM 2-NBDG for 24 h. To stop the response, the cells were washed three times with ice-cold PBS, and then the 2-NBDG fluorescence intensity was measured on a microplate reader (FL × 800, Bio-Tek Instruments Inc., Winooski, VT, USA) at 490 nm (excitation) and 535 nm (emission). Five replicate wells were established, and each experiment was replicated three times. Rosiglitazone was used as the positive control.

[2] = biological target: T1, human recombinant aldose reductase (HRAR) (Homo sapiens, UniProt P15121); assay: HRAR inhibition assay (NADPH absorption decrease, DL-glyceraldehyde substrate); assay type: biochemical
T1 construct: purchased Wako Chemicals (Osaka, Japan)
Method: HRAR inhibition was examined as described by Ali et al.. Briefly, AR activity was determined by measuring the decrease in NADPH absorption at 340 nm over a period of 1 min on an Ultrospec®2100pro UV/Visible spectrophotometer (Cytiva, Buckinghamshire, UK). SWIFT II Applications software (Amersham Biosciences, NJ, USA) was used for all data analyses. […] The inhibition percentage (%) was calculated as described in the RLAR assay, except that the DA sample per min value represented the reduction in absorbance for 1 min with the test samples and substrate. The ability of each sample to inhibit HRAR was expressed as an IC50 value (µM), which was calculated from the log-dose inhibition curve.
(§1) To determine the inhibition mechanism, enzymatic inhibition at various concentrations of 6-FU was evaluated by monitoring the effects of different concentrations of substrates via Dixon plots. Dixon plots for PTP1B inhibition by 6-FU were obtained in the presence of 0.5, 1, and 2 mM pNPP. The test concentrations of 6-FU in the PTP1B kinetic analysis were 0, 1.25, 2.5, 5.0, and 10 µM. Dixon plots for α-glucosidase inhibition by 6-FU were performed in the presence of 0.625, 1.25, and 2.5 mM pNPG. The test concentrations of 6-FU used in the α-glucosidase kinetic analysis were 0, 31.25, 62.5, 125, and 250 µM. Both enzymatic procedures followed the PTP1B and α-glucosidase assay methods. Dixon plots for HRAR inhibition by 6-FU were performed in the presence of 5, 10, and 20 mM of DL-glyceraldehyde as the substrate. The test concentrations of 6-FU used in the HRAR kinetic analysis were 0, 0.08, 0.4, 2, and 10 µM. The Dixon plot is a graphical method [1/enzyme velocity (1/V) against inhibitor concentration (I)] for determining the type of enzyme inhibition and was used to determine the dissociation or inhibition constant (Ki) for the enzyme–inhibitor complex. Thus, the type of enzyme inhibition was determined by interpreting the Lineweaver–Burk plots, and the inhibition constants (Ki) were determined by interpreting the Dixon plots.

C2C12 cells = assay: C2C12 cell viability (MTT assay); assay type: cell-based; details: 24 h, up to 40 μM (tested up to 80 μM)
Method: The C2C12 cell line (skeletal muscle cells) was purchased from the American Type Culture Collection (Manassas, VA, USA). The C2C12 cells were cultured at 37 °C in DMEM supplemented with 10% FBS and P/S (Hyclone, Mordialloc, VIC, Australia) in a humidified atmosphere with 5% CO2. The tetrazolium dye colorimetric test (MTT) was used to determine cell viability. First, the C2C12 cells were cultured in 96-well plates (2 × 10^5 cells/well) for 24 h. After they reached 90% confluence, they were treated with various concentrations of 6-FU. After 24 h of incubation, the MTT reagent was added to each well, and the plate was incubated for 2 h at 37 °C. The media were removed, and the wells were washed twice with PBS (pH 7.4). To measure the proportion of surviving cells, the medium was replaced with 100 μL DMSO (100%). The resulting absorbance values were measured at 570 nm with a microplate reader (Molecular Devices, Sunnyvale, CA, USA).

[3] = biological target: T2, PTP1B (human recombinant) (Homo sapiens, UniProt P18031); assay: PTP1B inhibition assay using pNPP; assay type: biochemical
T2 construct: purchased Biomol International LP (Plymouth Meeting, PA, USA)
T2 sequence (P18031 1-435): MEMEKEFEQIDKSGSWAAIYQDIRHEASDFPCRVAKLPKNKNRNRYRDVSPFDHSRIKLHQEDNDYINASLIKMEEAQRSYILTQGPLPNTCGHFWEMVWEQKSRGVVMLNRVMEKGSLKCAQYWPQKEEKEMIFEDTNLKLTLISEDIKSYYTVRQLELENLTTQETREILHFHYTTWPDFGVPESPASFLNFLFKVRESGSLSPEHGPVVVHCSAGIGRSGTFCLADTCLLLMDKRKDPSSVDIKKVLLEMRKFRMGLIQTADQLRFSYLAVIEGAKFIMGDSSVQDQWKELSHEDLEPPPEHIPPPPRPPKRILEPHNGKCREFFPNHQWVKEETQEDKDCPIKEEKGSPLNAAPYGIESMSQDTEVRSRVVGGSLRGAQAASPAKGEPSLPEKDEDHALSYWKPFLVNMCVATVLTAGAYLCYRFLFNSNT
Method: The PTP1B inhibitory activity was evaluated using pNPP according to the modified procedure reported by Ali et al..
as §1

[4] = tested on: advanced glycation end-product (AGE) formation; assay: Inhibition of fluorescent AGE formation in HSA-glucose-fructose system; parameters: species or system human; details: for percentage of inhibition of AGE formation: week 4 of incubation
Method: The formation of glycated HSA-fructose-glucose was examined according to a previously published method. To prepare the AGE reaction solution, 20 mg/mL HSA in 50 mM sodium phosphate buffer (pH 7.4) was added to 0.2M fructose, 0.2 M glucose, and 0.02% sodium azide to prevent bacterial growth. The reaction mixture (3.8 mL) was then mixed with 200 μL of various concentrations of 6-FU and aminoguanidine hydrochloride dissolved in 10% DMSO. The control was prepared using HSA and sugars, and a blank was prepared using only HSA in the same buffer. The reaction mixtures were incubated at 37 °C for 4 weeks. Aliquots of the reaction mixtures were then assayed to determine the presence of AGEs.
The ability of the isolates to inhibit AGE formation was evaluated according to a previously published method with slight modifications. To prepare the AGE reaction solution, 20 mg/mL HSA in 50mM sodium phosphate buffer (pH 7.4) was added to 0.2M fructose and 0.2 M glucose, along with 0.02% sodium azide to prevent bacterial growth. The reaction mixture (950 μL) was then combined with various concentrations of 6-FU (50 μL, test concentration ranging from 0.8 to 100 μM) dissolved in 10% DMSO. After incubating the mixture at 37 °C, AGE formation in the aliquots was determined at weekly intervals using a spectrofluorometric detector (FLx800 microplate fluorescence reader, Bio-Tek Instrument, Inc., Winooski, VT, USA) with excitation and emission wavelengths of 350 nm and 450 nm, respectively. The nucleophilic hydrazine compound aminoguanidine was used as a reference in the AGE assay.

[5] = tested on: PTP1B expression in insulin-resistant C2C12 cells; assay: PTP1B expression by Western blot; assay type: cell-based; details: 40 μM, 24 h
Method: Insulin-resistant C2C12 cells (2 × 10^5 cells/well) in 6-well plates were treated with different concentrations of 6-FU for 24 h. After stimulation with 100 nM insulin for 30 min at 37 °C, the cells were washed three times with ice-cold PBS, collected, and lysed with sample buffer (50 mM HEPES, pH 7.5, 150 mM NaCl, 2.5 mM EDTA, 0.5% NP40, 1 mM PMSF, 1 mM DTT, 0.2% aprotinin, 0.5% leupeptin, 20 mM NaF, and 1 mM Na3VO4) on ice. After incubation for 30 min, the insoluble materials were removed by centrifugation at 25,000× g for 20 min. The protein concentrations were determined using a modified Bradford protein assay kit. Total protein (50 μg) was subjected to dodecyl sulfate–polyacrylamide gel electrophoresis and transferred to a polyvinylidene difluoride membrane. The membranes were blocked in blocking buffer (5% skim milk in Tris-buffered saline containing 0.1% Tween 20 (TBST)) and incubated with primary antibodies overnight at 4 °C, followed by incubation with appropriate secondary antibodies for 4 h at room temperature. The membranes were washed three times with TBST for 40 min. The bands were detected using Super Signal West Pico chemiluminescence substrate (Pierce, Rockford, IL, USA) according to the manufacturer’s instructions. The immunoreactive protein bands were detected using an Odyssey scanning system (LI-COR, Lincoln, NE, USA). […]

Yeast α-glucosidase = Yeast α-glucosidase (Saccharomyces cerevisiae, UniProt P53341); assay: α-glucosidase inhibitory assay using pNPG; assay type: biochemical; details: Dixon and Lineweaver-Burk plots
Chain of Yeast α-glucosidase (P53341 whole entry): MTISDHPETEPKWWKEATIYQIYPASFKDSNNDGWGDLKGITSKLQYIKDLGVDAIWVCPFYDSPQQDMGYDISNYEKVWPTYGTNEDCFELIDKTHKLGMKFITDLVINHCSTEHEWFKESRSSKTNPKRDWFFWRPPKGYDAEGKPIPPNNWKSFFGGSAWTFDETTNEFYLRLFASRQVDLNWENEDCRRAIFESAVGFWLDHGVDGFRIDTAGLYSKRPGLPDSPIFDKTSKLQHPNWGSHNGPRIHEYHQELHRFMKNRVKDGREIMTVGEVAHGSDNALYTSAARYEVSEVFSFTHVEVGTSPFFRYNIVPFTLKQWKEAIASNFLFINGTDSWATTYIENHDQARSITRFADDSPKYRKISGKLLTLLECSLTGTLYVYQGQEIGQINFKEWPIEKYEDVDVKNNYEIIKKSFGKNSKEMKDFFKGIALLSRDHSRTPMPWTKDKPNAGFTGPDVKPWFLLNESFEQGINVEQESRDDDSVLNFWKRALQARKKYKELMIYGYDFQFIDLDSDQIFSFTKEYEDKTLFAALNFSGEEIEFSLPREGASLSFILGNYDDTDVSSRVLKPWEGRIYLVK
Method: as §1

[6] = Dixon and Lineweaver-Burk plots

Structure (SMILES): O=Cc1cc2ccc(=O)oc2cc1O [6-FU, 6-formyl umbelliferone]
- insulin-stimulated 2-NBDG uptake ([1]; 10, 20, and 40 μM, compared with the control): significantly enhanced
- IC50 [2]: 5.11 ± 0.21 µM
- Ki [2]: 4.87 µM
- Inhibition type HRAR [2, 6]: Mixed
- cytotoxicity (cell viability, MTT) (C2C12 cells): not cytotoxic
- IC50 [3]: 1.13 ± 0.12 µM
- Ki [3]: 1.72 µM
- Inhibition type PTP1B [3, 6]: Competitive
- IC50 ([4]; AGE formation, mean ± SEM of triplicates): 2.15 ± 0.13 µM
- percentage of inhibition of AGE formation ([4]; 0.8 μM): 24.04%
- percentage of inhibition of AGE formation ([4]; 4.0 μM): 55.73%
- percentage of inhibition of AGE formation ([4]; 20 μM): 64.18%
- percentage of inhibition of AGE formation ([4]; 100 μM): 82.60%
- PTP1B expression level [5]: decreased
- Inhibition type α-Glucosidase (Yeast α-glucosidase): Mixed

Structure (SMILES): N=C(N)NN [Aminoguanidine, aminoguanidine, reference compound]
- percentage of inhibition of AGE formation ([4]; 100 μM): 57.23%

Structure (SMILES): O=C(O)Cn1c(=O)n(Cc2ccc(Br)cc2F)c(=O)c2ccc(Cl)cc21 [Zenarestat, zenarestat, reference compound]
- IC50 [2]: 0.63 ± 0.01 µM

Structure (SMILES): CN(CCOc1ccc(CC2SC(=O)NC2=O)cc1)c1ccccn1 (stereo not drawn) [rosiglitazone, reference compound]
- insulin-stimulated glucose uptake ([1]; 5 μM): significantly increased
